In US8231887B2, “Pesticidal compositions” (BASF Corporation, priority 2008, dated 2012):
Values joined by “and” are separate entries in the source; they are usually repeats but may differ in a detail not shown here. Identical values can stand only once.

Experiments:
cockroaches [1] = experiment: 1-propanol and 1-heptanol alone and in combination with Exxsol D95 mineral oil (Example 17); assay type: in vivo; details: for # dead at 24 h / Proportion dead at 24 h: individual treatment; for synergy with EXXSOL D95: result in words
cockroaches [2] = experiment: Topical toxicity test of alcohols and/or PD23 mineral oil, dead at 24 h (Example 10); assay type: in vivo, Blattella germanica
Procedure: (§1) Toxicity evaluations were performed on 7-14 day old adult male and female German cockroaches (SCJ Strain, S.C. Johnson & Son, Racine, Wis.). Approximately 12 cockroaches were transferred to individual 100×20 mm polystyrene Petri dishes and anesthetized with a 15-25 second exposure to carbon dioxide. The inside edge of each Petri dish was lightly coated with mineral oil plus petroleum jelly in a 1:3 (wt/wt) ratio to minimize escape. Anesthetized cockroaches were positioned with their ventral side up, and a 1 μl drop of the diluted test composition was applied to the area between the meso- and metathoracic legs using a Rainin L-10, 10 μl capacity pipette (Rainin Instrument, LLC, Oakland, Calif.). Five replications of 12 male cockroaches were done for each test composition. Separate tests were done using female cockroaches. Results were evaluated at 24 hours following treatment. Cockroaches were scored as either alive (dorsal side up, active movement when abdomen prodded with dissecting probe) or moribund/dead (dorsal side up and no movement when abdomen prodded or ventral side up and insect unable to right itself).
The compositions comprising alcohol and/or mineral oil are described in Table 13.

cockroaches (all male) = experiment: Topical toxicity test of mineral oil and/or hexylene glycol, isopropyl myristate, dioxane or d-limonene in acetone (Examples 3-6); assay type: in vivo, Blattella germanica; details: 24 hours; for # dead: 1 μl topical, remainder acetone
Procedure: as §1, with “itself). […]” for “itself).”
(§2) Tests were generally performed as described in Example 1, except the number of cockroaches (all male) tested for each composition is set forth below in Table 6, and the compositions were not further diluted with acetone in a 1:1 (wt/wt) ratio prior to testing. The results are shown in Table 6, which lists the number of cockroaches tested for each composition, the number of dead cockroaches out of the total number of cockroaches tested, the square root percent dead cockroaches, the proportion of dead cockroaches, and the arcsine square root percent dead cockroaches.
as §2, with “7,” for “6,”

cockroaches [3] = experiment: LD50 and LD10 of mineral oils and alcohols, dose-response mortality, probit analysis (Example 9); assay type: in vivo, Blattella germanica; details: 95% CI printed in the line below
Procedure: In this example, various mineral oils and alcohols were tested to determine, for cockroaches, the LD50 and LD10 for each.
PD23 and PD28 mineral oils were obtained from Sonneborn LLC, Mahwah, N.J. The physical properties of these oils are shown in Table 11. Each mineral oil was tested to determine the LD50 and LD10 (Table 12).
The tested alcohols were obtained from Sigma-Aldrich Corp., St. Louis, Mo. Each alcohol was tested to determine the LD50 and LD10 (Table 12).

[4] = Table 14, composite data of the replicates
[5] = Table 14, composite data, calculated proportion

CCCCCCCO [Composition 1-heptanol, 1-heptanol]
# dead at 24 h (cockroaches [1]; 0.40 mg): 1 | Proportion dead at 24 h (cockroaches [1]; 0.40 mg): 0.028 | synergy with EXXSOL D95 (cockroaches [1]): significant synergy | # dead at 24 h (cockroaches [2]; [4]): 1 | Proportion dead at 24 h (cockroaches [2]; [5]): 0.028

C=C(C)[C@H]1CC=C(C)CC1 [d-limonene (40%), d-limonene]
# dead (cockroaches (all male); Table 7, per replicate): 1 and 0 and 2 (2×) | Arcsine square root % dead (cockroaches (all male); Table 7, per replicate): 0 | Proportion dead (cockroaches (all male); Table 7, per replicate): 0 | Square root % dead (cockroaches (all male); Table 7, per replicate): 0

1-propanol [Composition 1-propanol]
LD10 mg/insect (cockroaches [3]): 0.472 mg/insect | LD50 mg/insect (cockroaches [3]): 0.557 mg/insect | # dead at 24 h (cockroaches [1]; 0.45 mg): 1 | Proportion dead at 24 h (cockroaches [1]; 0.45 mg): 0.028 | synergy with EXXSOL D95 (cockroaches [1]): significant synergy | # dead at 24 h (cockroaches [2]; Table 13, per replicate of 10-16 treated cockroaches, mg per insect in the label, listed as 1-propanol (0.45 mg)): 1 and 0 (2×) | Proportion dead at 24 h (cockroaches [2]; Table 13, per replicate, listed as 1-propanol (0.45 mg)): 0.083 and 0.000 (2×) | # dead at 24 h (cockroaches [2]; [4]): 1 | Proportion dead at 24 h (cockroaches [2]; [5]): 0.028

C1COCCO1 [Dioxane (50%), Dioxane]
# dead (cockroaches (all male); Table 6, per replicate): 0 (4×) and 1 | Arcsine square root % dead (cockroaches (all male); Table 6, per replicate): 0 | Proportion dead (cockroaches (all male); Table 6, per replicate): 0 | Square root % dead (cockroaches (all male); Table 6, per replicate): 0
